Residue numbers refer to the chain shown, from its start.
How the values were obtained:
Type in all cases: cell-based
mouse P2X7 [1] = target: T1, mouse P2X7 (Mus musculus, UniProt Q9Z1M0); test: Competition:[…] blocks X7-uP labeling of endogenous P2X7 (pull-down western blot, confocal)
T1 construct: gene P2rx7; endogenous P2X7 in BV2 cells
T1 sequence (Q9Z1M0 1-595): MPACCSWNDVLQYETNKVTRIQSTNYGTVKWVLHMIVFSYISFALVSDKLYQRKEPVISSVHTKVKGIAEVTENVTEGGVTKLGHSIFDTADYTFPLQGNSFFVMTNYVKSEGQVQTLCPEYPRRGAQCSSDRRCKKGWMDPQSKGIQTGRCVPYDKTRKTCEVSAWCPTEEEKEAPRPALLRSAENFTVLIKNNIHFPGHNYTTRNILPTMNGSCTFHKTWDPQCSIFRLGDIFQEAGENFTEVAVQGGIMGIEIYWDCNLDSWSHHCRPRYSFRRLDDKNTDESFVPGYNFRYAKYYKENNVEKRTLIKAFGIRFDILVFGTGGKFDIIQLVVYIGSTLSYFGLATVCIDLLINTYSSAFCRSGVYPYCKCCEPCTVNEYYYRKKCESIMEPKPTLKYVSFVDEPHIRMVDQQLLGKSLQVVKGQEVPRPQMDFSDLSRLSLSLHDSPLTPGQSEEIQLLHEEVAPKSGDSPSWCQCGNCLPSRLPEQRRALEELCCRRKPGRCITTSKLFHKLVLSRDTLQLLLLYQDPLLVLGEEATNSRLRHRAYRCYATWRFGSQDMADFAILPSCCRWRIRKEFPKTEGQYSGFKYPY

rat P2X7 (rP2X7) [2] = target: T2, rat P2X7 (rP2X7) (Rattus norvegicus, UniProt Q64663); test: Whole-cell patch-clamp, inhibition of BzATP-evoked currents at […] in HEK293T cells; also blocks X7-uP labeling; design: gene P2rx7
T2 sequence (Q64663 1-595): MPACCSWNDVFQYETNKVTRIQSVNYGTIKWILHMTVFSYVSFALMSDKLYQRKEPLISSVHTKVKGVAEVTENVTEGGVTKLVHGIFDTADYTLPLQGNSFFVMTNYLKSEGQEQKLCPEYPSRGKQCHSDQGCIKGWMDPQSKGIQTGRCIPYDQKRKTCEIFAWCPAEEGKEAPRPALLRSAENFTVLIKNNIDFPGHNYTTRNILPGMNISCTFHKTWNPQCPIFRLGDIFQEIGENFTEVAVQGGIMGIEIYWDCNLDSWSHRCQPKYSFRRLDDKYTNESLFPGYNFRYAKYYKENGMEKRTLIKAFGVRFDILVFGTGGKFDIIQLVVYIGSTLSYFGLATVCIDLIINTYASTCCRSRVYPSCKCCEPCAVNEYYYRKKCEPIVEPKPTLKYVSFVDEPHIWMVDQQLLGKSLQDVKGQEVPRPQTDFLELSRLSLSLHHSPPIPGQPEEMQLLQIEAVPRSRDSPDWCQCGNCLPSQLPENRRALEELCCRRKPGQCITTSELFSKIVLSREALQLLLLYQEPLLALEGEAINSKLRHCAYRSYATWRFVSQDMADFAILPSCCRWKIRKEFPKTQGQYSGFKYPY

rat P2X7 (rP2X7) [3] = target: T3, rat P2X7 (rP2X7) (Rattus norvegicus, UniProt Q64663, K82A/K117A); test: Whole-cell patch-clamp, reversible inhibition of BzATP-evoked currents by […] X7-uP in HEK293T cells
T3 construct: gene P2rx7; P2X7-mScarlet background
T3 sequence (Q64663 1-595 K82A/K117A): T2 sequence (Q64663 1-595) with K82A, K117A

rat P2X7 (rP2X7) [4] = target: T2, rat P2X7 (rP2X7); test: Kinetics of covalent biotinylation in HEK293T cells (pull-down western blot); whole-cell patch-clamp inhibition of BzATP currents; design: gene P2rx7; P2X7c-myc
mouse P2X7 [5] = target: T1, mouse P2X7; test: Covalent biotinylation of endogenous receptor with […] X7-uP, pull-down western blot and confocal imaging, blocked by AZ10606120 or A740003

| SMILES | Competition: 10 μM blocks X7-uP labeling of endogenous P2X7 (pull-down western b) (mouse P2X7 [1]) | inhibition at 1 µM (rat P2X7 (rP2X7) [2]) | Whole-cell patch-clamp, reversible inhibition of BzATP-evoked currents by 0.5 μM (rat P2X7 (rP2X7) [3]) | Kd (rat P2X7 (rP2X7) [4]) | % labeled (mouse P2X7 [5]) |
| --- | --- | --- | --- | --- | --- |
| O=C(CC12CC3CC(CC(C3)C1)C2)Nc1cccc2nc(NCCNCCO)ccc12 [AZ10606120] | This band disappeared upon co-incubation with AZ10606120 or A740003 | 99.7% |  |  |  |
| N#CCN(C(=O)CCOCCOCCOCCOCCNC(=O)CCCC[C@@H]1SC[C@@H]2NC(=O)N[C@@H]21)S(=O)(=O)c1ccc(C(=O)NCCNc2ccc3c(NC(=O)CC45CC6CC(CC(C6)C4)C5)cccc3n2)cc1 [X7-uP, N-(2-((5-(2-(adamantan-1-yl)acetamido)quinolin-2-yl)amino)ethyl)–4-(N-(cyanomethyl)-N-(17-oxo-21-((3aR,4R,6aS)–2-oxo-hexahydro-1H-thieno[3,4-d]imidazol-4-yl)–4,7,10,13-tetraoxa-16-azahenico-sanoyl)sulfamoyl)benzamide] |  |  | the double K82A/K117A mutant did not affect the ability of X7-uP to inhibit BzATP-evoked currents | 7.3 µM | 80 % labeled |
